Six molecules from ChEMBL document CHEMBL4321828, “Recent developments on (-)-colchicine derivatives: Synthesis and structure-activity relationship” (Eur J Med Chem, 2020) can be followed below.

Molecules are shown by their SMILES.

For one test, the system named is DLD-1. Put plainly: Antiproliferative activity against human DLD1 cells assessed as reduction in cell viability. The format is functional, cell-based.
Settings: not given
As usually defined, the IC50 is the concentration that gives 50% inhibition. As for `CCCSc1ccc2c(cc1=O)[C@@H](NC(C)=O)CCc1cc(OC)c(OC)c(OC)c1-2`, the IC50 stood at 71.8 nM.

In the case of `COc1cc2c(c(OC)c1OC)-c1ccc(SC(C)C)c(=O)cc1[C@@H](NC(C)=O)CC2`, the IC50 came to 177 nM.

Consider `CCSc1ccc2c(cc1=O)[C@@H](NC(C)=O)CCc1cc(OC)c(OC)c(OC)c1-2`, for which the 50% inhibitory concentration (IC50) was 51.2 nM.

System in a further test: not listed separately
Put plainly: Antiproliferative activity against human KB-8-5-11 cells assessed as reduction in cell viability after 96 hrs by methylene blue staining based spectrophotometric method. The format is functional.
Settings: not given
For `COc1c(CO)c2c(c(OC)c1OC)-c1ccc(OC)c(=O)cc1[C@@H](NC(C)=O)CC2`, the IC50 is > 1000 nM.

In the case of `COc1c(COC(C)=O)c2c(c(OC)c1OC)-c1ccc(OC)c(=O)cc1[C@@H](NC(C)=O)CC2`, the concentration for half-maximal inhibition (IC50) is > 1000 nM.

Take `COc1c(COC2CCCCO2)c2c(c(OC)c1OC)-c1ccc(OC)c(=O)cc1[C@@H](NC(C)=O)CC2` (stereo partly drawn): the IC50 was > 1000 nM.

For a further test, the system named is KB 3-1. The experiment in a line: Antiproliferative activity against human KB3-1 cells assessed as reduction in cell viability after 96 hrs by methylene blue staining based spectrophotometric method. The format is functional. The note with it: KB 3-1, 96 h.
Turning to `COc1c(CO)c2c(c(OC)c1OC)-c1ccc(OC)c(=O)cc1[C@@H](NC(C)=O)CC2`, the IC50 worked out at 260 nM.

For the molecule `COc1c(COC(C)=O)c2c(c(OC)c1OC)-c1ccc(OC)c(=O)cc1[C@@H](NC(C)=O)CC2`, the 50% inhibitory concentration (IC50) is > 1000 nM.

For `COc1c(COC2CCCCO2)c2c(c(OC)c1OC)-c1ccc(OC)c(=O)cc1[C@@H](NC(C)=O)CC2` (stereo partly drawn), the half-inhibitory concentration (IC50) is > 1000 nM.

The next test deals with LoVo. Put plainly: Antiproliferative activity against human LoVo cells assessed as reduction in cell viability. The class given is functional, cell-based.
Settings: not given
For the molecule `CCCSc1ccc2c(cc1=O)[C@@H](NC(C)=O)CCc1cc(OC)c(OC)c(OC)c1-2`, the IC50 came out at 56.1 nM.

As for `COc1cc2c(c(OC)c1OC)-c1ccc(SC(C)C)c(=O)cc1[C@@H](NC(C)=O)CC2`, the IC50 amounted to 150 nM.

As to `CCSc1ccc2c(cc1=O)[C@@H](NC(C)=O)CCc1cc(OC)c(OC)c(OC)c1-2`, the half-inhibitory concentration (IC50) came out at 19.5 nM.

The test system of a further test is MCF7. Put plainly: Antiproliferative activity against human MCF7 cells assessed as reduction in cell viability. The format is functional, cell-based.
Settings: not given
With `CCCSc1ccc2c(cc1=O)[C@@H](NC(C)=O)CCc1cc(OC)c(OC)c(OC)c1-2`, the concentration for half-maximal inhibition (IC50) worked out at 764 nM.

Take `COc1cc2c(c(OC)c1OC)-c1ccc(SC(C)C)c(=O)cc1[C@@H](NC(C)=O)CC2`: the half-inhibitory concentration (IC50) came out at 564 nM.

Consider `CCSc1ccc2c(cc1=O)[C@@H](NC(C)=O)CCc1cc(OC)c(OC)c(OC)c1-2`, for which the IC50 was determined as 56.1 nM.

Another test has as its system MDA-MB-231. The experiment in a line: Antiproliferative activity against human MDA-MB-231 cells assessed as reduction in cell viability. The class given is functional, cell-based.
Settings: not given
Turning to `CCCSc1ccc2c(cc1=O)[C@@H](NC(C)=O)CCc1cc(OC)c(OC)c(OC)c1-2`, the half-inhibitory concentration (IC50) was determined as 704 nM.

Consider `COc1cc2c(c(OC)c1OC)-c1ccc(SC(C)C)c(=O)cc1[C@@H](NC(C)=O)CC2`, for which the IC50 was 1100 nM.

Turning to `CCSc1ccc2c(cc1=O)[C@@H](NC(C)=O)CCc1cc(OC)c(OC)c(OC)c1-2`, the IC50 amounted to 148 nM.
